Key:
OVCAR3 (Ovarian) cells = experiment: Inhibition of OVCAR3 cells by compounds; assay type: cell-based; conditions: PY-X (DXD) set to 1
Experimental: (§1) On the day of the experiment, the cells were digested with 0.25% trypsin (Gibco, 25200-072), filtered through a 40 μm sieve, diluted with the corresponding medium to a cell density of 1×10^4 cells/mL, and inoculated into a 96-well white cell culture plate (Beyotime, FCP968), with 100 μL of cells added per well. The culture plate was placed in a 37° C. incubator (Thermo 311) containing 5% C02 and incubated for 24 hours. On the second day, the samples to be tested were prepared as a stock solution at a final concentration of 1M in DMSO (Sigma, D1650), then diluted with the corresponding medium to a final concentration of 200 nM, and subjected to four-fold serial dilutions, resulting in a total of 9 concentrations. 100 μL of the diluted sample was added to each well of the 96-well plate. The plate was placed in a 37° C. incubator containing 5% CO2 and incubated for 144 hours. The cell culture plate was then removed, and 100 μL of the cell viability assay reagent (CellTiter-Glo® Luminescent Cell Viability Assay, Promega, G7571) was added to each well. The reaction was carried out in the dark at room temperature for 5 minutes. Luminescence values were read using a microplate reader (TECAN SPARK), and data were processed using Graphpad Prism 7 software.

A549 (NSCLC) cells = experiment: Inhibition of A549 cells by compounds; assay type: cell-based; conditions: PY-X (DXD) set to 1
Experimental: as §1

H82 (SCLC) cells = experiment: Inhibition of H82 cells by compounds; assay type: cell-based; conditions: PY-X (DXD) set to 1
Experimental: as §1

H1975 (NSCLC) cells = experiment: Inhibition of H1975 cells by compounds; assay type: cell-based; conditions: PY-X (DXD) set to 1
Experimental: as §1

H1437 (NSCLC) cells = experiment: Inhibition of H1437 cells by compounds; assay type: cell-based; conditions: PY-X (DXD) set to 1
Experimental: as §1

[1] = system: PANC-1 (Pancreatic) cells; experiment: Inhibition of PANC-1 cells by compounds; assay type: cell-based; conditions: PY-X (DXD) set to 1
Experimental: as §1

H23 (NSCLC) cells = experiment: Inhibition of H23 cells by compounds; assay type: cell-based; conditions: PY-X (DXD) set to 1
Experimental: as §1

N87 gastric cancer cells = experiment: Inhibitory activity of compounds on N87 gastric cancer cells (CellTiter-Glo, 144 h); assay type: cell-based; conditions: IC50 of PY-X (DXD) set to 1; values are ratios of measured IC50 to DXD; 144 h
Experimental: as §1
(§2) PY—Y is referenced in the document (WO2022170971A1); and PY-A is referenced in the document (WO2021148501A1).

PA-1 (Ovarian) cells = experiment: Inhibition of PA-1 cells by compounds; assay type: cell-based; conditions: PY-X (DXD) set to 1
Experimental: as §1

[2] = system: MDA-MB-468 breast cancer cells; experiment: Inhibitory activity of compounds on MDA-MB-468 breast cancer cells (CellTiter-Glo); assay type: cell-based; conditions: IC50 of PY-X (DXD) set to 1; values are ratios of measured IC50 to DXD
Experimental: as §1, §2

SW1573 (NSCLC) cells = experiment: Inhibition of SW1573 cells by compounds; assay type: cell-based; conditions: PY-X (DXD) set to 1
Experimental: as §1

HT-29 (Colon) cells = experiment: Inhibition of HT-29 cells by compounds; assay type: cell-based; conditions: PY-X (DXD) set to 1
Experimental: as §1

H1650 (NSCLC) cells = experiment: Inhibition of H1650 cells by compounds; assay type: cell-based; conditions: PY-X (DXD) set to 1
Experimental: as §1

Colo-205 (Colon) cells = experiment: Inhibition of Colo-205 cells by compounds; assay type: cell-based; conditions: PY-X (DXD) set to 1
Experimental: as §1

H358 (NSCLC) cells = experiment: Inhibition of H358 cells by compounds; assay type: cell-based; conditions: PY-X (DXD) set to 1
Experimental: as §1

FADU (HNSCC) cells = experiment: Inhibition of FADU cells by compounds; assay type: cell-based; conditions: PY-X (DXD) set to 1
Experimental: as §1

[3] = system: SW1990 (Pancreatic) cells; experiment: Inhibition of SW1990 cells by compounds; assay type: cell-based; conditions: PY-X (DXD) set to 1
Experimental: as §1

DMS53 (SCLC) cells = experiment: Inhibition of DMS53 cells by compounds; assay type: cell-based; conditions: PY-X (DXD) set to 1
Experimental: as §1

[4] = US 20210169852 A; cited from earlier work

SMILES	IC50 in OVCAR3 cells, ratio to DXD (OVCAR3 (Ovarian) cells)	IC50 in A549 cells, ratio to DXD (A549 (NSCLC) cells)	IC50 in H82 cells, ratio to DXD (H82 (SCLC) cells)	IC50 in H1975 cells, ratio to DXD (H1975 (NSCLC) cells)	IC50 in H1437 cells, ratio to DXD (H1437 (NSCLC) cells)	IC50 in PANC-1 cells, ratio to DXD [1]	IC50 in H23 cells, ratio to DXD (H23 (NSCLC) cells)	IC50 on N87 cells, ratio to DXD (N87 gastric cancer cells)	IC50 in PA-1 cells, ratio to DXD (PA-1 (Ovarian) cells)	IC50 on 468 cells, ratio to DXD [2]	IC50 in SW1573 cells, ratio to DXD (SW1573 (NSCLC) cells)	IC50 in HT-29 cells, ratio to DXD (HT-29 (Colon) cells)	IC50 in H1650 cells, ratio to DXD (H1650 (NSCLC) cells)	IC50 in Colo-205 cells, ratio to DXD (Colo-205 (Colon) cells)	IC50 in H358 cells, ratio to DXD (H358 (NSCLC) cells)	IC50 in FADU cells, ratio to DXD (FADU (HNSCC) cells)	IC50 in SW1990 cells, ratio to DXD [3]	IC50 in DMS53 cells, ratio to DXD (DMS53 (SCLC) cells)	times less active than exatecan [4]
CC[C@@]1(O)C(=O)OCc2c1cc1n(c2=O)Cc2c-1nc1cc(F)c(O)c3c1c2CCC3 [PY-13, (S)-9-ethyl-5-fluoro-4,9-dihydroxy-1,2,3,9,12,15-hexahydro-10H,13H-benzo[de]pyrano[3′,4:6,7]indolizino[1,2-b]quinolin-10,13-dione]	0.0560	0.0899	0.1364	0.0426	0.0969	0.0810	0.0819	0.0852	0.1600	0.0798	0.1570	0.1434	0.0415	0.1643	0.1062	0.1648	0.1255	0.1624	
CC[C@@]1(O)C(=O)OCc2c1cc1n(c2=O)Cc2c-1nc1cc(F)c(C)c3c1c2[C@@H](NC(=O)CO)CC3 [DXd]																			2-4
